ChEMBL document CHEMBL4428052, “Substrate-Guided Design of Selective FXIIa Inhibitors Based on the Plant-Derived Momordica cochinchinensis Trypsin Inhibitor-II (MCoTI-II) Scaffold” (J Med Chem, 2016)
Peptide text beside a SMILES is read from it.

Legend:
[1] = biological target: Coagulation factor X (Homo sapiens, UniProt P00742); test: Inhibition of factor 10a (unknown origin) using Ac-QRSRpNA as substrate incubated for 30 mins measured for 7 mins by morrison plot analysis
[2] = biological target: Prothrombin (Homo sapiens, UniProt P00734); test: Inhibition of thrombin (unknown origin) using Ac-ATPRpNA as substrate incubated for 30 mins measured for 7 mins by morrison plot analysis
[3] = biological target: Urokinase-type plasminogen activator (Homo sapiens, UniProt P00749); test: Inhibition of uPA (unknown origin) incubated for 30 mins measured for 7 mins by morrison plot analysis
[4] = biological target: T1, Coagulation factor XII (Homo sapiens, UniProt P00748); test: Inhibition of factor 12a (unknown origin) using Ac-QRFRpNA as substrate incubated for 30 mins measured for 7 mins by morrison plot analysis
T1 sequence (P00748 whole entry): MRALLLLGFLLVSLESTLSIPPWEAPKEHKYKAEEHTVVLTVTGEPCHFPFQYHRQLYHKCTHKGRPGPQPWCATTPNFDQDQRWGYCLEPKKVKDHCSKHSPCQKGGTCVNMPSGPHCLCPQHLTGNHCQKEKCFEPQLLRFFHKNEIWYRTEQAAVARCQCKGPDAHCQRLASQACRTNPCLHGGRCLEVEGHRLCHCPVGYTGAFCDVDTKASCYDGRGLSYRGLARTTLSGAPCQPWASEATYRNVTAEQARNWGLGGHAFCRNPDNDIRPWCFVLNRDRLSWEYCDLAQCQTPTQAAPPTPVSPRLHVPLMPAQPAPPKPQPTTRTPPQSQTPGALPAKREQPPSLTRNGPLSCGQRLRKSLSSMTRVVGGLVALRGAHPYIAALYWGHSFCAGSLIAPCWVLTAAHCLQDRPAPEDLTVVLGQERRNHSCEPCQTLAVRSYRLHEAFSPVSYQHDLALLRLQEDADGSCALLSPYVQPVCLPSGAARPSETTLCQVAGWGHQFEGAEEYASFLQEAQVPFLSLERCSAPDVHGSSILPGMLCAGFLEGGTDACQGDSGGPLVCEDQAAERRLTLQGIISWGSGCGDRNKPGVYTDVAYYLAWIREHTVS

[5] = biological target: Coagulation factor IX (Homo sapiens, UniProt P00740); test: Inhibition of factor 9a (unknown origin) using Ac-QGRpNA as substrate incubated for 30 mins measured for 7 mins by morrison plot analysis
Chain of Coagulation factor IX (P00740 47-191 limits assumed): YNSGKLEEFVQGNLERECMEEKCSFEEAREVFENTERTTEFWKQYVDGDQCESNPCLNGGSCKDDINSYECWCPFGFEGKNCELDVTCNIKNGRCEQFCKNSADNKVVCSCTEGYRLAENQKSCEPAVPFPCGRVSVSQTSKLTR
Chain of Coagulation factor IX (P00740 227-461 limits assumed): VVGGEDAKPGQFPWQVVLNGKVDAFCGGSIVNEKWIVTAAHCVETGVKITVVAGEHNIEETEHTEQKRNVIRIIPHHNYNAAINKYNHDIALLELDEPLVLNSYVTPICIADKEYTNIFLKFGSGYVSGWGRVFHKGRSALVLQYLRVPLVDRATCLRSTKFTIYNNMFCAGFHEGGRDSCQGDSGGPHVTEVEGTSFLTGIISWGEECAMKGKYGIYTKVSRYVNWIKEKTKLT

[6] = biological target: Coagulation factor XI (Homo sapiens, UniProt P03951); test: Inhibition of factor 11a (unknown origin) using Bz-FVRpNA as substrate incubated for 30 mins measured for 7 mins by morrison plot analysis
Chain of Coagulation factor XI (P03951 19-387 limits assumed): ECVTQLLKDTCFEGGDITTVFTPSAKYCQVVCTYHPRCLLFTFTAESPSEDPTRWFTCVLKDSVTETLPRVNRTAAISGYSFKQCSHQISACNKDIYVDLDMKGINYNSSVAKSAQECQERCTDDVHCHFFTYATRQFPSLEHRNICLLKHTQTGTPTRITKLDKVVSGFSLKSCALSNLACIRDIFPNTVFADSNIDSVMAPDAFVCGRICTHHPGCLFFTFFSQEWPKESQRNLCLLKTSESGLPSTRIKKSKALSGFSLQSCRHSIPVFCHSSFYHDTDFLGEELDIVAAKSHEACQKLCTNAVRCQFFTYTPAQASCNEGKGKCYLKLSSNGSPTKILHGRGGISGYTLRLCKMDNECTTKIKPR
Chain of Coagulation factor XI (P03951 388-625 limits assumed): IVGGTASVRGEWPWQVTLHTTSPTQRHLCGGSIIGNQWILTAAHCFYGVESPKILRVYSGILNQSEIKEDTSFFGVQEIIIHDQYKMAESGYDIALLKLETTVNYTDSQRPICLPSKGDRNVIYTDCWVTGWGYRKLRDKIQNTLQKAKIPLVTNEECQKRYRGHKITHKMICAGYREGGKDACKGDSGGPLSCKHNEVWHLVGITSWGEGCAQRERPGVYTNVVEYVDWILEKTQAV

[7] = biological target: Plasminogen (Homo sapiens, UniProt P00747); test: Inhibition of plasmin (unknown origin) using Ac-RM(O2)YRpNA as substrate incubated for 30 mins measured for 7 mins by morrison plot analysis
Chain of Plasminogen (P00747 97-580 limits assumed): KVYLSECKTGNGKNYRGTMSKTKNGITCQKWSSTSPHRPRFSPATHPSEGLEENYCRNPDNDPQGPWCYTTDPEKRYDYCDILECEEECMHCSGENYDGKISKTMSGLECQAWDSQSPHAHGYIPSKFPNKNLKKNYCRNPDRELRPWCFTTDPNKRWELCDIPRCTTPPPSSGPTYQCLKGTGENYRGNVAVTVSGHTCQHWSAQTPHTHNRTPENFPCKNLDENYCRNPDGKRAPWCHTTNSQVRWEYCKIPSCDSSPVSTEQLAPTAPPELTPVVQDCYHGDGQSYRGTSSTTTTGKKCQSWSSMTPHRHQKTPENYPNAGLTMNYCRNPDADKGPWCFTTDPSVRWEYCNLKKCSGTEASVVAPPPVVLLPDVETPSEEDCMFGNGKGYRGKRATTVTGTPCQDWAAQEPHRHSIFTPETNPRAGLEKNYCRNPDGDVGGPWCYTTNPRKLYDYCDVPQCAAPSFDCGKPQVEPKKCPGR
Chain of Plasminogen (P00747 581-810 limits assumed): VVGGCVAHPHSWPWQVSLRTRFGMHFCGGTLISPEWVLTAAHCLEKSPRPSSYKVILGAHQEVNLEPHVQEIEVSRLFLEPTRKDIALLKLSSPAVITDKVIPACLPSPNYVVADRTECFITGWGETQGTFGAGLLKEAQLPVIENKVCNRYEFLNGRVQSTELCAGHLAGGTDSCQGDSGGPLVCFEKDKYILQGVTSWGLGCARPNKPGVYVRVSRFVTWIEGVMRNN

[8] = biological target: Trypsin (Homo sapiens, UniProt P07477+P07478+P35030); test: Inhibition of trypsin (unknown origin) using Bz-FVRpNA as substrate incubated for 30 mins measured for 7 mins by morrison plot analysis; format: protein assay
[9] = biological target: Plasma kallikrein (Homo sapiens, UniProt P03952); test: Inhibition of human plasma kallikrein using Ac-RM(O2)YRpNA as substrate incubated for 30 mins measured for 7 mins by morrison plot analysis
Chain of Plasma kallikrein (P03952 20-390 limits assumed): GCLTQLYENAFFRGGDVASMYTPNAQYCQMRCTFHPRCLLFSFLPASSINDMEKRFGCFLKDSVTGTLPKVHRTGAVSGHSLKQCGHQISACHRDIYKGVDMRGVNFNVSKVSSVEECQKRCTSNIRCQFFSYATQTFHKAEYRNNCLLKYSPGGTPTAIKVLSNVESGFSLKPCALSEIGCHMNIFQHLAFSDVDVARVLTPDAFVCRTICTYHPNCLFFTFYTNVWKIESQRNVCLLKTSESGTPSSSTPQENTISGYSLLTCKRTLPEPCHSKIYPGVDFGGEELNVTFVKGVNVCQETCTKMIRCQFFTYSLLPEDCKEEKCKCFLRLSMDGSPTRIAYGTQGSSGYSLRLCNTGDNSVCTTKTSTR
Chain of Plasma kallikrein (P03952 391-638 limits assumed): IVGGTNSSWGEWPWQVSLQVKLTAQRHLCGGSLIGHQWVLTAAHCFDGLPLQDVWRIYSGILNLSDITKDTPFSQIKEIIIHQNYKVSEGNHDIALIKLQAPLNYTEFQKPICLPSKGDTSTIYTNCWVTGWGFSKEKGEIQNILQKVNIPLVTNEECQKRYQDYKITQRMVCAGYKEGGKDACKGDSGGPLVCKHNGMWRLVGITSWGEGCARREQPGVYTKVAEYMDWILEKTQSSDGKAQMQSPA

[10] = biological target: Tissue-type plasminogen activator (Homo sapiens, UniProt P00750); test: Inhibition of tPA (unknown origin) incubated for 30 mins measured for 7 mins by morrison plot analysis
Chain of Tissue-type plasminogen activator (P00750 whole entry): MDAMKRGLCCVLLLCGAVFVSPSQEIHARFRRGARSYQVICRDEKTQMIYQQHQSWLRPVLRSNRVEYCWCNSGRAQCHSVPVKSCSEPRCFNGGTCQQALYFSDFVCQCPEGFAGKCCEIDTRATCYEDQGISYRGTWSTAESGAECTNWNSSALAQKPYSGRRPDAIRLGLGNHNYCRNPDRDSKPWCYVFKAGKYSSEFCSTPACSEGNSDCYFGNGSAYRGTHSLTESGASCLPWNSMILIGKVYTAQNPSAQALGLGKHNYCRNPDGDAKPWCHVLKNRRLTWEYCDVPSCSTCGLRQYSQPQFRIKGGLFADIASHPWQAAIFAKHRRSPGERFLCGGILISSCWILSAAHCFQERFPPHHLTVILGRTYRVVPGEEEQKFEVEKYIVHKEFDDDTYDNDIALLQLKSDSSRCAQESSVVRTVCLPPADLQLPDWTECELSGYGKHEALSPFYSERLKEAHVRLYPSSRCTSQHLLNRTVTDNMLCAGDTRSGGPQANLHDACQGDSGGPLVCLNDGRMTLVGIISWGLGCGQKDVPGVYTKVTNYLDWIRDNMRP

[11] = species: Homo sapiens; test: Selectivity ratio of Ki for factor 10a (unknown origin) to Ki for factor 12a (unknown origin)

Chain of Coagulation factor X (P00742 41-179 limits assumed): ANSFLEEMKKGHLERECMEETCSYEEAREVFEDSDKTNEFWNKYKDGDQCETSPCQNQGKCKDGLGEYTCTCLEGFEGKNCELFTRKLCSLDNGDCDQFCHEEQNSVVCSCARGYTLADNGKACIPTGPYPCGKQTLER
Chain of Coagulation factor X (P00742 235-488 limits assumed): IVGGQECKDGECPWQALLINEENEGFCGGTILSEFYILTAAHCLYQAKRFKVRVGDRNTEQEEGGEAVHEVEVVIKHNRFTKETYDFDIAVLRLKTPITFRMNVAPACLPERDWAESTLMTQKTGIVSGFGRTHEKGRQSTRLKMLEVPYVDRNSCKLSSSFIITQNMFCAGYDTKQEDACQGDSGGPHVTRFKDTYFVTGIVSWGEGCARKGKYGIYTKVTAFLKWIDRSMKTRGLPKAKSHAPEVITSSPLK

SMILES	Ki [1] [µM]	Ki [2] [µM]	Ki [3] [µM]	Ki [4] [nM]	Ki [5] [µM]	Ki [6] [µM]	Ki [7] [nM]	Ki [8] [nM]	Ki [9] [µM]	Ki [10] [µM]	Ratio Ki [11]
CC(=O)N[C@@H](CCC(N)=O)C(=O)N[C@@H](CCCNC(=N)N)C(=O)N[C@@H](Cc1ccccc1)C(=O)N[C@H](C=O)CCCNC(=N)N (Ac-QRFR-aldehyde)	0.57			180							3
CC[C@H](C)[C@@H]1NC(=O)[C@@H]2CSSC[C@H](NC(=O)[C@H](CCC(N)=O)NC(=O)CNC(=O)[C@@H](N)CCCCN)C(=O)N[C@@H](Cc3ccccc3)C(=O)N[C@@H](CCCNC(=N)N)C(=O)N[C@@H]([C@@H](C)CC)C(=O)N[C@@H](Cc3c[nH]c4ccccc34)C(=O)N[C@@H](CCCCN)C(=O)N[C@@H](CCCCN)C(=O)N[C@H]3CSSC[C@H](NC1=O)C(=O)N[C@@H](CCCNC(=N)N)C(=O)NCC(=O)N[C@@H](CC(N)=O)C(=O)NCC(=O)N[C@@H](Cc1ccc(O)cc1)C(=O)N[C@H](C(=O)NCC(=O)N[C@@H](CO)C(=O)NCC(=O)N[C@@H](CO)C(=O)N[C@@H](CC(=O)O)C(=O)O)CSSC[C@H](NC(=O)[C@H](CC(=O)O)NC(=O)[C@H](CO)NC(=O)[C@H](CC(=O)O)NC(=O)[C@H](CCCNC(=N)N)NC(=O)[C@H](CCCNC(=N)N)NC3=O)C(=O)N1CCC[C@H]1C(=O)NCC(=O)N[C@@H](C)C(=O)N2				490	> 50	> 100	4540	6240	> 50	> 50	
CC[C@H](C)[C@@H]1NC(=O)[C@H](CCCNC(=N)N)NC(=O)[C@H](Cc2ccccc2)NC(=O)[C@H](NC(=O)[C@H](CCC(N)=O)NC(=O)CNC(=O)CN)CSSC[C@H]2NC(=O)[C@H](C)NC(=O)CNC(=O)[C@@H]3CCCN3C(=O)[C@@H]3CSSC[C@H](C(=O)NCC(=O)N[C@@H](CO)C(=O)NCC(=O)N[C@@H](CO)C(=O)N[C@@H](CC(=O)O)C(=O)O)NC(=O)[C@H](Cc4ccc(O)cc4)NC(=O)CNC(=O)[C@H](CC(N)=O)NC(=O)CNC(=O)[C@H](CCCNC(=N)N)NC(=O)[C@H](CSSC[C@H](NC(=O)[C@H](CCCCN)NC(=O)[C@H](CCCCN)NC(=O)[C@H](Cc4c[nH]c5ccccc45)NC1=O)C(=O)N[C@@H](CCCNC(=N)N)C(=O)N[C@@H](CCCNC(=N)N)C(=O)N[C@@H](CC(=O)O)C(=O)N[C@@H](CO)C(=O)N[C@@H](CC(=O)O)C(=O)N3)NC(=O)[C@H]([C@@H](C)CC)NC2=O	> 100	> 10	> 10								
CC[C@H](C)[C@@H]1NC(=O)[C@@H]2CSSC[C@H](NC(=O)[C@@H](NC(=O)CNC(=O)CN)C(C)C)C(=O)N3CCC[C@H]3C(=O)N[C@@H](CCCCN)C(=O)N[C@@H]([C@@H](C)CC)C(=O)N[C@@H](CC(C)C)C(=O)N[C@@H](CCCCN)C(=O)N[C@@H](CCCCN)C(=O)N[C@H]3CSSC[C@H](NC1=O)C(=O)N[C@@H](CCCNC(=N)N)C(=O)NCC(=O)N[C@@H](CC(N)=O)C(=O)NCC(=O)N[C@@H](Cc1ccc(O)cc1)C(=O)N[C@H](C(=O)NCC(=O)N[C@@H](CO)C(=O)NCC(=O)N[C@@H](CO)C(=O)N[C@@H](CC(=O)O)C(=O)O)CSSC[C@H](NC(=O)[C@H](CC(=O)O)NC(=O)[C@H](CO)NC(=O)[C@H](CC(=O)O)NC(=O)[C@H](CCCNC(=N)N)NC(=O)[C@H](CCCNC(=N)N)NC3=O)C(=O)N1CCC[C@H]1C(=O)NCC(=O)N[C@@H](C)C(=O)N2				750	> 10	> 10	28	0.16	> 10	> 10	

Second part, the compound after the results:

Ki [1] [µM]	Ki [2] [µM]	Ki [3] [µM]	Ki [4] [nM]	Ki [5] [µM]	Ki [6] [µM]	Ki [7] [nM]	Ki [8] [nM]	Ki [9] [µM]	Ki [10] [µM]	Ratio Ki [11]	SMILES
> 10	> 10	> 10									CC[C@H](C)[C@@H]1NC(=O)[C@H](CCCCN)NC(=O)[C@@H]2CCCN2C(=O)[C@H](NC(=O)[C@@H](NC(=O)CNC(=O)CN)C(C)C)CSSC[C@H]2NC(=O)[C@H](C)NC(=O)CNC(=O)[C@@H]3CCCN3C(=O)[C@@H]3CSSC[C@H](C(=O)NCC(=O)N[C@@H](CO)C(=O)NCC(=O)N[C@@H](CO)C(=O)N[C@@H](CC(=O)O)C(=O)O)NC(=O)[C@H](Cc4ccc(O)cc4)NC(=O)CNC(=O)[C@H](CC(N)=O)NC(=O)CNC(=O)[C@H](CCCNC(=N)N)NC(=O)[C@H](CSSC[C@H](NC(=O)[C@H](CCCCN)NC(=O)[C@H](CCCCN)NC(=O)[C@H](CC(C)C)NC1=O)C(=O)N[C@@H](CCCNC(=N)N)C(=O)N[C@@H](CCCNC(=N)N)C(=O)N[C@@H](CC(=O)O)C(=O)N[C@@H](CO)C(=O)N[C@@H](CC(=O)O)C(=O)N3)NC(=O)[C@H]([C@@H](C)CC)NC2=O
			510	> 10	> 10	1500	2240	> 10	> 10		CC[C@H](C)[C@@H]1NC(=O)[C@@H]2CSSC[C@H](NC(=O)[C@H](CCC(N)=O)NC(=O)CNC(=O)CN)C(=O)N[C@@H](Cc3ccccc3)C(=O)N[C@@H](CCCNC(=N)N)C(=O)N[C@@H]([C@@H](C)CC)C(=O)N[C@@H](Cc3c[nH]c4ccccc34)C(=O)N[C@@H](CCCCN)C(=O)N[C@@H](CCCCN)C(=O)N[C@H]3CSSC[C@H](NC1=O)C(=O)N[C@@H](CCCNC(=N)N)C(=O)NCC(=O)N[C@@H](CC(N)=O)C(=O)NCC(=O)N[C@@H](Cc1ccc(O)cc1)C(=O)N[C@H](C(=O)NCC(=O)N[C@@H](CO)C(=O)NCC(=O)N[C@@H](CO)C(=O)N[C@@H](CC(=O)O)C(=O)O)CSSC[C@H](NC(=O)[C@H](CC(=O)O)NC(=O)[C@H](CO)NC(=O)[C@H](CC(=O)O)NC(=O)[C@H](CCCNC(=N)N)NC(=O)[C@H](CCCNC(=N)N)NC3=O)C(=O)N1CCC[C@H]1C(=O)NCC(=O)N[C@@H](C)C(=O)N2
			110	> 10	> 10	270	6.9	> 10	> 10		CC[C@H](C)[C@@H]1NC(=O)[C@@H]2CSSC[C@H](NC(=O)[C@H](CCC(N)=O)NC(=O)CNC(=O)CN)C(=O)N[C@@H](Cc3ccccc3)C(=O)N[C@@H](CCCNC(=N)N)C(=O)N[C@@H]([C@@H](C)CC)C(=O)N[C@@H](CC(C)C)C(=O)N[C@@H](CCCCN)C(=O)N[C@@H](CCCCN)C(=O)N[C@H]3CSSC[C@H](NC1=O)C(=O)N[C@@H](CCCNC(=N)N)C(=O)NCC(=O)N[C@@H](CC(N)=O)C(=O)NCC(=O)N[C@@H](Cc1ccc(O)cc1)C(=O)N[C@H](C(=O)NCC(=O)N[C@@H](CO)C(=O)NCC(=O)N[C@@H](CO)C(=O)N[C@@H](CC(=O)O)C(=O)O)CSSC[C@H](NC(=O)[C@H](CC(=O)O)NC(=O)[C@H](CO)NC(=O)[C@H](CC(=O)O)NC(=O)[C@H](CCCNC(=N)N)NC(=O)[C@H](CCCNC(=N)N)NC3=O)C(=O)N1CCC[C@H]1C(=O)NCC(=O)N[C@@H](C)C(=O)N2
96	> 10	> 10									CC[C@H](C)[C@@H]1NC(=O)[C@H](CCCNC(=N)N)NC(=O)[C@H](CO)NC(=O)[C@H](NC(=O)[C@H](CCC(N)=O)NC(=O)CNC(=O)CN)CSSC[C@H]2NC(=O)[C@H](C)NC(=O)CNC(=O)[C@@H]3CCCN3C(=O)[C@@H]3CSSC[C@H](C(=O)NCC(=O)N[C@@H](CO)C(=O)NCC(=O)N[C@@H](CO)C(=O)N[C@@H](CC(=O)O)C(=O)O)NC(=O)[C@H](Cc4ccc(O)cc4)NC(=O)CNC(=O)[C@H](CC(N)=O)NC(=O)CNC(=O)[C@H](CCCNC(=N)N)NC(=O)[C@H](CSSC[C@H](NC(=O)[C@H](CCCCN)NC(=O)[C@H](CCCCN)NC(=O)[C@H](CC(C)C)NC1=O)C(=O)N[C@@H](CCCNC(=N)N)C(=O)N[C@@H](CCCNC(=N)N)C(=O)N[C@@H](CC(=O)O)C(=O)N[C@@H](CO)C(=O)N[C@@H](CC(=O)O)C(=O)N3)NC(=O)[C@H]([C@@H](C)CC)NC2=O
			2160	> 10	> 10	> 10000	> 10000	> 10	> 10		CC[C@H](C)[C@@H]1NC(=O)[C@@H]2CSSC[C@H](NC(=O)[C@H](CCC(N)=O)NC(=O)CNC(=O)CN)C(=O)N[C@@H](CO)C(=O)N[C@@H](CCCNC(=N)N)C(=O)N[C@@H]([C@@H](C)CC)C(=O)N[C@@H](CC(C)C)C(=O)N[C@@H](CCCCN)C(=O)N[C@@H](CCCCN)C(=O)N[C@H]3CSSC[C@H](NC1=O)C(=O)N[C@@H](CCCNC(=N)N)C(=O)NCC(=O)N[C@@H](CC(N)=O)C(=O)NCC(=O)N[C@@H](Cc1ccc(O)cc1)C(=O)N[C@H](C(=O)NCC(=O)N[C@@H](CO)C(=O)NCC(=O)N[C@@H](CO)C(=O)N[C@@H](CC(=O)O)C(=O)O)CSSC[C@H](NC(=O)[C@H](CC(=O)O)NC(=O)[C@H](CO)NC(=O)[C@H](CC(=O)O)NC(=O)[C@H](CCCNC(=N)N)NC(=O)[C@H](CCCNC(=N)N)NC3=O)C(=O)N1CCC[C@H]1C(=O)NCC(=O)N[C@@H](C)C(=O)N2
